Assay results taken from patent publication US11925633B2, “Drug for preventing and/or treating dementia” (NATIONAL CEREBRAL AND CARDIOVASCULAR CENTER, priority 2016, dated 2024).
Like-named read-outs stand apart in the source and are kept apart here.

Tests used:
APP-SwDI transgenic mice [1] = assay: Carbon dioxide gas inhalation test (cerebral blood flow, laser speckle blood flow imager); type: in vivo, mouse; settings: 12-month-old mice; for cerebral blood flow increase rate after 5% CO2 supply: feed from 4-week-old to 12-month-old, compared to APP-SwDI mice on normal feed; for time course of the cerebral blood flow increase rate after 5% CO2 supply: measured for 5 min after start of 5% CO2; for significance of the difference in cerebral blood flow increase rate versus normal feed group (repeated measurement and variance analysis): versus APP-SwDI mice on normal feed
Method: Analysis was performed by using 12-month-old C57BL/6J mice administered with a normal feed (n=4), APP-SwDI transgenic mice administered with a normal feed (n=10), APP-SwDI transgenic mice administered with a cilostazol-containing feed (n=4), APP-SwDI transgenic mice administered with a taxifolin-containing feed (n=5), and APP-SwDI transgenic mice administered with a feed containing cilostazol and taxifolin (n=7), totaling 30 mice. The feeds containing cilostazol, taxifolin, or cilostazol and taxifolin were administered from 4-week-old to 12-month-old. The concentration of cilostazol in the cilostazol-containing feed was 0.3 wt % and the concentration of taxifolin in the taxifolin-containing feed was 3 wt %. All the APP-SwDI transgenic mice used were homozygous male mice. The mice were anesthetized by intraperitoneal injection of α-chloralose and urethane. Then, endotracheal intubation was performed and the baseline of the cerebral blood flow was measured. Thereafter, 5% CO2 was supplied, and the cerebral blood flow was sequentially measured for 5 min. Relative increase rate was measured from the changes in the cerebral blood flow between the baseline and after 5% CO2 supply. The cerebral blood flow was measured by a laser speckle blood flow imager (OZ-2, OMEGAWAVE, INC.). FIG. 2 is a graph showing mean of relative increase rate of the cerebral blood flow after supply of 5% CO2 in the mice of each group. […] Error bars show standard error.

[2] = mouse, in vivo
Method: (§1) In the “APP-SwDI transgenic mice administrated with a feed containing cilostazol and taxifolin (n=3)”, as mentioned above, the blood concentration of this mouse was measured after administration of the feed containing cilostazol and taxifolin.

amyloid beta = settings: administration of cilostazol; non-patent documents 1, 2; cited from earlier work
[3] = administration of cilostazol; non-patent documents 1, 2; cited from earlier work
[4] = administration of cilostazol; cilostazol package insert; cited from earlier work
APP-SwDI transgenic mice [5] = assay: Immunohistochemistry for Aβ deposition on the cerebral blood vessel wall (hippocampus region); type: in vivo, mouse; settings: 8-month-old mice, drug-containing feed from 4-week-old to 8-month-old; compared to APP-SwDI mice on normal feed
Method: The cilostazol-containing feed, the taxifolin-containing feed, and the feed containing cilostazol and taxifolin were administered from 4-week-old to 8-month-old. The concentration of cilostazol in the cilostazol-containing feed was 0.3 wt %, and the concentration of taxifolin in the taxifolin-containing feed was 3 wt %. The concentration of cilostazol and the concentration of taxifolin in the feed containing cilostazol and taxifolin were respectively 0.3 wt % and 3 wt %. All the APP-SwDI transgenic mice used were homozygous male mice. The 4-week-old APP-SwDI transgenic mice are considered to be in the initial stage of accumulation of Aβ in the brain blood vessel, i.e., the initial stage of cerebral amyloid angiopathy, and neuronal loss is considered to be not progressing much in this stage. The brain of an 8-month-old APP-SwDI transgenic mice was perfusion fixed using 4% para-formaldehyde, the removed brain was dehydration-treated for a whole day. A paraffin block of the fixed brain tissue was prepared, and the paraffin block was sliced in 6 microns by microtome. […] The hippocampus region was traced in a section which was cut 1 mm outside the midline, and the percentage of the Aβ accumulation area in the region of interest was measured by using image analysis software ImageJ (National Institutes of Health. USA). […]

APP-SwDI transgenic mice [6] = assay: Water maze test (Morris water maze, with probe test); type: in vivo, mouse; settings: 8-month-old mice; for residence time in Zone-1 in the probe test (visuospatial memory): fifth day, platform removed, 60 seconds; for swimming time to reach the platform (visuospatial memory): first day to fourth day, 4 trials per day
Method: The cilostazol-containing feed, the taxifolin-containing feed, and the feed containing cilostazol and taxifolin were administered from 4-week-old to 8-month-old. The concentration of cilostazol in the cilostazol-containing feed was 0.3 wt %, and the concentration of taxifolin in the taxifolin-containing feed was 3 wt %. The concentration of cilostazol and the concentration of taxifolin in the feed containing cilostazol and taxifolin were respectively 0.3 wt % and 3 wt %. All the APP-SwDI transgenic mice used were homozygous male mice. The water maze test is a test for evaluating the visuospatial cognitive ability of mouse by utilizing the habit of avoiding water and escaping therefrom. The water maze used in this experiment was Morris water maze manufactured by Brain Science Idea, having a circular pool of a water tank entirely painted black with inner diameter 120 cm, wall height 30 cm. One transparent acrylic circular platform for escape with diameter 10 cm, height 10 cm was set at 30 cm from the center of the pool and 30 cm from the periphery. Clues such as poster, photograph and the like were arranged on the wall so that the mice could memorize various spatial arrangements in the surroundings, and the locations of these clues were always unchanged during the experiment. The pool was filled with water to a depth of 11 cm, and a platform was installed at about 1 cm below the water surface as in FIG. 3(A). In all tests, Zone-2 in FIG. 3(B) was set as a start position. Zone-1 to Zone-4 show quadrant regions in the circular pool. The mice were gently placed on the water surface while facing the wall of the pool so that they could not see the location of the platform. The tests were performed from the first day to the fourth day, 4 trials per day. In each trial, the total swimming distance and the time required for reaching the platform (swimming time) were measured. […] On the fifth day, the mice were made to swim for 60 seconds with the platform removed from the pool (probe test). In the test, the residence time in Zone-1 where the goal was placed from the first day to the fourth day was measured. […] Error bars show standard error. […] Error bars show standard error.

APP-SwDI transgenic mice [7] = settings: compared to APP-SwDI mice on control feed; non-patent document 3; cited from earlier work
APP-SwDI transgenic mice [8] = assay: Survival curve (cumulative survival rate); type: in vivo, mouse; settings: observation within 500 days after birth; slaughter not included
Excerpt: 1, 2014 to Nov. 30, 2015, were used to plot and analyze a survival curve of the mice.

APP-SwDI transgenic mice [9] = assay: Y-maze test (alternation response rate); type: in vivo, mouse; settings: 13-month-old mice, feed from 4-week-old to 13-month-old; test for 8 minutes
Method: The cilostazol-containing feed, the taxifolin-containing feed, and the feed containing cilostazol and taxifolin were administered from 4-week-old to 13-month-old. The concentration of cilostazol in the cilostazol-containing feed was 0.3 wt %, and the concentration of taxifolin in the taxifolin-containing feed was 3 wt %. The concentration of cilostazol and the concentration of taxifolin in the feed containing cilostazol and taxifolin were respectively 0.3 wt % and 3 wt %. All the APP-SwDI transgenic mice used were homozygous male mice. In the Y-maze test, according to the general practice method, the alternation response rate was measured from the results of the test for 8 minutes. […] FIG. 7 is a graph showing an average alternation response rate of the mice of each group. Error bars show standard error.

[10] = Blood concentration after administration of the feed containing cilostazol and taxifolin
Method: as §1

APP-SwDI transgenic mice [11] = assay: Hair loss score (fighting); type: in vivo, mouse; settings: 13-month-old mice; compared to APP-SwDI mice on normal feed
Excerpt: Hair loss occurs when mice fight. Thus, the extent of hair loss of each mouse was described in 4 grades of Grade: 0-3 and taken as a hair loss score. Almost normal state is Grade: 0 and hair loss over nearly whole body is Grade: 3. Less than 50% of the whole body surface was classified as Grade: 1 and not less than 50% was classified as Grade: 2.
The information of mice was concealed and two evaluators independently evaluated the hair loss score. Mean of each evaluation was taken as the hair loss score of the mice.
Error bars show standard error.

Row | SMILES | cerebral blood flow increase rate after 5% CO2 supply (APP-SwDI transgenic mice [1]) | time course of the cerebral blood flow increase rate after 5% CO2 supply (APP-SwDI transgenic mice [1]) | significance of the difference in cerebral blood flow increase rate versus normal feed group (repeated measurement and variance analysis) (APP-SwDI transgenic mice [1]) | presence in the blood (compound or its metabolite) [2] | intracerebral accumulation of amyloid beta (amyloid beta) | reduction of cognitive function [3] | cerebral blood flow in the vertebral artery, internal carotid artery, cerebral cortex, hypothalamus and the like [4] | intracerebral Aβ accumulation amount (APP-SwDI transgenic mice [5]) | residence time in Zone-1 in the probe test (visuospatial memory) (APP-SwDI transgenic mice [6]) | swimming time to reach the platform (visuospatial memory) (APP-SwDI transgenic mice [6]) | alternation response in the Y-maze test (APP-SwDI transgenic mice [7]) | death of mice (cumulative survival rate) (APP-SwDI transgenic mice [8]) | alternation response rate (working memory) (APP-SwDI transgenic mice [9]) | presence in the blood (compound or its metabolite) [10] | hair loss score (Grade 0-3) (APP-SwDI transgenic mice [11])
1 | O=C1CCc2cc(OCCCCc3nnnn3C3CCCCC3)ccc2N1 [cilostazol, 6-[4-(1-cyclohexyl-1H-tetrazol-5-yl)butoxy]-3,4-dihydrocarbostyril] | increased | increased after a certain period of time after 5% CO2 supply | a significant difference was absent | detected in the blood | suppressed | suppressed | increases | significant decrease | visuospatial memory disorder improving effect of cilostazol was considered to be limited | visuospatial memory disorder improving effect of cilostazol was considered to be limited | increased |  |  |  | 
2 | O=C1c2c(O)cc(O)cc2O[C@H](c2ccc(O)c(O)c2)[C@H]1O [taxifolin] | increased | rapidly increased after 5% CO2 supply | a significant difference was absent |  |  |  |  | significant decrease | the same results as in the C57BL/6J mouse | the same results as in the C57BL/6J mouse |  | died clearly more than other mice | significant improvement was not observed | detected in the blood | clearly severe hair loss
